Results: ChEMBL document CHEMBL3774383, “Design and synthesis of [(125)I]Pyricoxib: A novel (125)I-labeled cyclooxygenase-2 (COX-2) inhibitors” (Bioorg Med Chem Lett, 2016)

Legend:
[1] = biological target: T1, Prostaglandin G/H synthase 2 (Homo sapiens, UniProt P35354); test: Inhibition of COX-2 (unknown origin)
T1 sequence (P35354 whole entry): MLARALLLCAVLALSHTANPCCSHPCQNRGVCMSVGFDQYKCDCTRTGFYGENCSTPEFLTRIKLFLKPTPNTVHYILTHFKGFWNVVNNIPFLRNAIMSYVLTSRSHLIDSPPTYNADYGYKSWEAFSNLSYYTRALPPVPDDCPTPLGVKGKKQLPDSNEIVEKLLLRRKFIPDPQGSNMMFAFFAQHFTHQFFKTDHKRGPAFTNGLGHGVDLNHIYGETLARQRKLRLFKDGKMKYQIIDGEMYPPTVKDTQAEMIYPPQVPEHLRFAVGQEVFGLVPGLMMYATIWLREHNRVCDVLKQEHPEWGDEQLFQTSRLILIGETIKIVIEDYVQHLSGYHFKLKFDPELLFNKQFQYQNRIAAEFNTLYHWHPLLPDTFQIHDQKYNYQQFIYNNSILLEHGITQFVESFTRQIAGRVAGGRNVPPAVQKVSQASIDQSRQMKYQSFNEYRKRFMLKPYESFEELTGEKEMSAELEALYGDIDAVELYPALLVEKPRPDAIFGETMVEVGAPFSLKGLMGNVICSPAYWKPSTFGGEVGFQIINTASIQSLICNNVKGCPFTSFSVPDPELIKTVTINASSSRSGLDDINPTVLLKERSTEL

[2] = biological target: COX-1/COX-2 (Homo sapiens) (UniProt P35354+P23219); test: Selectivity index, ratio of IC50 for COX-2 (unknown origin) to COX-1 (unknown origin)
[3] = biological target: T2, Prostaglandin G/H synthase 1 (Ovis aries, UniProt P05979); test: Inhibition of ovine COX-1 preincubated for 5 mins followed by addition of arachidonic acid as substrate measured after 2 mins by fluorescence analysis
T2 sequence (P05979 whole entry): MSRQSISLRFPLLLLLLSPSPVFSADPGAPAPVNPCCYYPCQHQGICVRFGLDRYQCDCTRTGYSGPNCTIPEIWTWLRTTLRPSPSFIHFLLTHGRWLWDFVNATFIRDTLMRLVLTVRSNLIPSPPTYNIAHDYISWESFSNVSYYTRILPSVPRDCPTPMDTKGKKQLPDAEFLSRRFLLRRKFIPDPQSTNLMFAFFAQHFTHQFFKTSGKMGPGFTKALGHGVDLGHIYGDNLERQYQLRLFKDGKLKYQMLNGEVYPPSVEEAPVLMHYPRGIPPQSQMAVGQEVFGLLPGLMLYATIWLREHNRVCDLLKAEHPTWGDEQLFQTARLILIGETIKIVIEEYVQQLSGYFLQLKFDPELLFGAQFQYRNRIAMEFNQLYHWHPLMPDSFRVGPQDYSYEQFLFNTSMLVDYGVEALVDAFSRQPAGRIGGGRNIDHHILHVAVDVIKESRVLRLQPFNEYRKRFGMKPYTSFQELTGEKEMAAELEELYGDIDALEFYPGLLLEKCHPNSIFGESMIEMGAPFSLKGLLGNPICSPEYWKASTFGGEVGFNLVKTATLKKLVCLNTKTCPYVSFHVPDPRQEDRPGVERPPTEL

[4] = biological target: T1, Prostaglandin G/H synthase 2
[5] = Selectivity index,ratio of IC50 for ovine COX-1 to recombinant human COX-2

Sequence of COX-1/COX-2 (Homo sapiens) (P23219 whole entry, looked up, one chain of several): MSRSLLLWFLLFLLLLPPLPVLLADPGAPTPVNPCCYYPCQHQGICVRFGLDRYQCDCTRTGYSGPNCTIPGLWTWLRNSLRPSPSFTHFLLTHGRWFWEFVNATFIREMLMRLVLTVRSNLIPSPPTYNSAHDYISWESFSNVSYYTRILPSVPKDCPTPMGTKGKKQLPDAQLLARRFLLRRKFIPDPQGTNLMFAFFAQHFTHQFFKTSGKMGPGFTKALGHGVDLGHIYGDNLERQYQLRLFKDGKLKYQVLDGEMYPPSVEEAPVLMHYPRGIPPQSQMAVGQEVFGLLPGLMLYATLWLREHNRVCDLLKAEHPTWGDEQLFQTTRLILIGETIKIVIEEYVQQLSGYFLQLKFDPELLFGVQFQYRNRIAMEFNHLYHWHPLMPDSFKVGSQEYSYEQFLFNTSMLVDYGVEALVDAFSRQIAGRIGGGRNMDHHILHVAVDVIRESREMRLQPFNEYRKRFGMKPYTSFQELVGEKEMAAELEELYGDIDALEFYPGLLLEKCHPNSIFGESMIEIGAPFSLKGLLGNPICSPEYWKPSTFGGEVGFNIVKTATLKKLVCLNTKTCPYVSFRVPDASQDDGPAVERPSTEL

IC50 [1] | Ratio IC50 [2] | IC50 [3] | IC50 [4] | Ratio IC50 [5] | SMILES
– | – | > 100 µM | – | – | CS(=O)(=O)c1ccc(-c2cc(C(F)(F)F)nc(NCc3ccc(F)cc3)n2)cc1
– | – | > 100 µM | 2.5 µM | > 40 | CS(=O)(=O)c1ccc(-c2cc(C(F)(F)F)nc(OCc3ccc(I)cc3)n2)cc1
– | – | > 100 µM | 0.85 µM | > 100 | CS(=O)(=O)c1ccc(-c2cc(C(F)(F)F)nc(NCc3ccc(I)cc3)n2)cc1
– | – | > 100 µM | 13 µM | > 7.5 | NS(=O)(=O)c1ccc(-c2cc(C(F)(F)F)nc(NCc3ccc(I)cc3)n2)cc1

Second part, the compound before the results:

SMILES | IC50 [1] | Ratio IC50 [2] | IC50 [3] | IC50 [4] | Ratio IC50 [5]
Cc1ccc(Nc2c(F)cccc2Cl)c(CC(=O)O)c1 [LUMIRACOXIB] | 0.06 µM | – | – | – | –
Cc1ccc(Nc2c(F)cccc2I)c(CC(=O)O)c1 | 2.5 µM | 10 | – | – | –
NS(=O)(=O)c1ccc(-n2nc(C(F)(F)F)cc2-c2ccc(I)cc2)cc1 | 8.2 µM | 10 | – | – | –
CS(=O)(=O)c1ccc(-n2nc(C(F)(F)F)cc2-c2ccc(I)cc2)cc1 | 5.2 µM | – | – | – | –
